For one assay, the system named is SKBR3 (PIK3CA WT) cells. The experiment in a line: pS473 AKT assay in SKBR3 cells. In kind it is cell-based. As to conditions: Homo sapiens, SK-BR-3, pSer473 AKT, 2 h treatment, read-out: SKBR3_IC50. As to the method:
(§1) SKBR3 (PIK3CA WT), MCF7 (PIK3CA E545K), and T47D (PIK3CA H1047R) cells were cultured using 10-cm petri dishes with recommended medium. One day before the assay, cells were seeded in 96-well plates. After overnight incubation, cells were treated with different concentrations of PI3Kα inhibitors for 2 h. Cells were then fixed using 4% paraformaldehyde at room temperature for 20 min. Cells were aspirated with 4% paraformaldehyde, and washed using 1× regular phosphate buffered saline 3 times, 5 min each. Any residual phosphate buffered saline was aspirated and cells were blocked using 10% goat serum containing 1% bovine serum albumin and 0.3% Triton X-100 at room temperature for 1 h. Without any additional washing, primary antibodies (rabbit anti-pSer473 AKT) were diluted using blocking buffer and added at a final volume of 50 microliter per well. Assay plates with primary antibodies were maintained overnight at 4° C. Cells were washed using 1× regular phosphate buffered saline 3 times, 5 min each. After the final wash, cells were incubated with horseradish peroxidase-conjugated secondary antibodies (goat Anti-rabbit IgG) and diluted using the same blocking buffer at room temperature for 1 h. Cells were then washed thoroughly using 1× regular phosphate buffered saline 3 times, 5 min each, and any residual phosphate buffered saline was aspirated. Super-Signal ELISA Pico Chemiluminescent Substrate was then added at a final volume of 100 microliter per well. Plates were read on a i3× Multi-Mode Microplate Reader and IC50 values calculated using GraphPad Prism software.
(§2) Results of the assay described above are presented in Table A. “++++” indicates an IC50 less than 1000 nM; “+++” indicates an IC50 greater than or equal to 1000 nM but less than 5000 nM; “++” indicates an IC50 greater than or equal to 5000 nM but less than 10000 nM; and “+” indicates an IC50 greater than or equal to 10000 nM.

Assay [1] deals with T47D (PIK3CA H1047R) cells. The experiment in a line: pS473 AKT assay in T47D cells. In kind it is cell-based. As to conditions: Homo sapiens, pSer473 AKT, 2 h treatment, read-out: T47D_IC50. As for the experimental part: as §1, §2

Some results are limits rather than exact numbers.

Take `Cc1cc(C(C)Nc2ccccc2C(=O)O)c2nc(N3CCC(C)(C)CC3)n3ccnc3c2c1` (stereo not drawn) [Example 1, 2-((1-(5-(4,4-Dimethylpiperidin-1-yl)-9-methylimidazo[1,2-c]quinazolin-7-yl)ethyl)amino)benzoic acid]: the IC50 with SKBR3 (PIK3CA WT) cells is no less than 10000 nM; in assay [1], less than 1000 nM.

As for `Cc1cc(C(C)Nc2ccccc2C(=O)O)c2nc(N3Cc4ccccc4C3)n3ccnc3c2c1` (stereo not drawn) [Example 2, 2-((1-(5-(Isoindolin-2-yl)-9-methylimidazo[1,2-c]quinazolin-7-yl)ethyl)amino)benzoic acid], the IC50 in the assay with SKBR3 (PIK3CA WT) cells was no less than 10000 nM; in assay [1] it was less than 1000 nM.

Take `Cc1cc(C(C)Nc2ccccc2C(=O)O)c2nc(N3CCC(C)(C)CC3)n3ncnc3c2c1` (stereo not drawn) [Example 3, 2-((1-(5-(4,4-Dimethylpiperidin-1-yl)-9-methyl-[1,2,4]triazolo[1,5-c]quinazolin-7-yl)ethyl)amino)benzoic acid]: the results for the IC50 (in the assay on SKBR3 (PIK3CA WT) cells; in assay [1]) were no less than 10000 nM and less than 1000 nM, respectively.

As for `Cc1cc(C(C)Nc2ccccc2C(=O)O)c2nc(N3CCC(C)(C)CC3)n3cnnc3c2c1` (stereo not drawn) [Example 4, 2-((1-(5-(4,4-Dimethylpiperidin-1-yl)-9-methyl-[1,2,4]triazolo[4,3-c]quinazolin-7-yl)ethyl)amino)benzoic acid], the IC50 in the assay on SKBR3 (PIK3CA WT) cells is no less than 10000 nM; in assay [1] it was less than 1000 nM.

For `Cc1cc(C(C)Nc2ccccc2C(=O)O)c2nc(N3Cc4ccccc4C3)n3cnnc3c2c1` (stereo not drawn) [Example 5, 2-((1-(5-(Isoindolin-2-yl)-9-methyl-[1,2,4]triazolo[4,3-c]quinazolin-7-yl)ethyl)amino)benzoic acid], the results for the IC50 (in the assay on SKBR3 (PIK3CA WT) cells; in assay [1]) were no less than 10000 nM and less than 1000 nM, respectively.

Take `Cc1cc(C(C)Nc2ccccc2C(=O)O)c2nc(N3CCC(C)(C)C3)n3cnnc3c2c1` (stereo not drawn) [Example 6, 2-((1-(5-(3,3-Dimethylpyrrolidin-1-yl)-9-methyl-[1,2,4]triazolo[4,3-c]quinazolin-7-yl)ethyl)amino)benzoic acid]: the IC50 in the assay on SKBR3 (PIK3CA WT) cells was no less than 10000 nM; in assay [1], less than 1000 nM.

Take `Cc1cc(C(C)Nc2ccccc2C(=O)O)c2nc(N3CC(C)(C)C3)n3cnnc3c2c1` (stereo not drawn) [Example 7, 2-((1-(5-(3,3-Dimethylazetidin-1-yl)-9-methyl-[1,2,4]triazolo[4,3-c]quinazolin-7-yl)ethyl)amino)benzoic acid]: the IC50 in the assay with SKBR3 (PIK3CA WT) cells is no less than 10000 nM; in assay [1], less than 1000 nM.

For the compound `Cc1cc(C(C)Nc2ccccc2C(=O)O)c2nc(N3CCC(C)(C)CC3)n3nnnc3c2c1` (stereo not drawn) [Example 8, 2-((1-(5-(4,4-dimethylpiperidin-1-yl)-9-methyltetrazolo[1,5-c]quinazolin-7-yl)ethyl)amino)benzoic acid], the IC50 is no less than 10000 nM in the assay on SKBR3 (PIK3CA WT) cells and 1000 to 5000 nM in assay [1].

On to `Cc1cc(C(C)Nc2ccccc2C(=O)O)c2nc(-c3cccc(C#N)c3)n3cnnc3c2c1` (stereo not drawn) [Example 9, 2-((1-(5-(3-Cyanophenyl)-9-methyl-[1,2,4]triazolo[4,3-c]quinazolin-7-yl)ethyl)amino)benzoic acid], for which the IC50 in assay [1] is less than 1000 nM.

On to `Cc1cc(C(C)Nc2ccc(Cl)nc2C(=O)O)c2nc(-c3cccc(C#N)c3)n3cnnc3c2c1` (stereo not drawn) [Example 10, 6-Chloro-3-((1-(5-(3-cyanophenyl)-9-methyl-[1,2,4]triazolo[4,3-c]quinazolin-7-yl)ethyl)amino)picolinic acid], for which the IC50 in assay [1] was less than 1000 nM.

In the case of `Cc1cc(C(C)Nc2ccccc2C(=O)O)c2nc(-c3cc(F)cc(F)c3)n3cnnc3c2c1` (stereo not drawn) [Example 11, 2-((1-(5-(3,5-Difluorophenyl)-9-methyl-[1,2,4]triazolo[4,3-c]quinazolin-7-yl)ethyl)amino)benzoic acid], the IC50 in assay [1] was less than 1000 nM.

Regarding `CCc1ncn2c3c(C(C)Nc4ccc(C)nc4C(=O)O)cc(C)cc3c3nncn3c12` (stereo not drawn) [Example 12, 3-((1-(5-Ethyl-11-methylimidazo[1,5-a][1,2,4]triazolo[4,3-c]quinazolin-9-yl)ethyl)amino)-6-methylpicolinic acid], in assay [1], the IC50 was in the range of 1000 to 5000 nM.

In the case of `Cc1cc(C(C)Nc2ccc(Cl)nc2-c2ccncc2)c2nc(N3CCC(C)(C)CC3)n3cnnc3c2c1` (stereo not drawn) [Example 13, 6-Chloro-N-(1-(5-(4,4-dimethylpiperidin-1-yl)-9-methyl-[1,2,4]triazolo[4,3-c]quinazolin-7-yl)ethyl)-[2,4′-bipyridin]-3-amine], in assay [1], the IC50 was less than 1000 nM.

With `CNC(=O)c1ccc(-c2nc(Cl)ccc2NC(C)c2cc(C)cc3c2nc(N2CCC(C)(C)CC2)n2cnnc32)cn1` (stereo not drawn) [Example 14, 6-Chloro-3-((1-(5-(4,4-dimethylpiperidin-1-yl)-9-methyl-[1,2,4]triazolo[4,3-c]quinazolin-7-yl)ethyl)amino)-N-methyl-[2,3′-bipyridine]-6′-carboxamide], the IC50 in assay [1] was less than 1000 nM.

Consider `Cc1cc(C(C)Nc2ccc(Cl)nc2-c2cnn(C)c2)c2nc(N3CCN(C)CC3)n3cnnc3c2c1` (stereo not drawn) [Example 15, 6-Chloro-2-(1-methyl-1H-pyrazol-4-yl)-N-(1-(9-methyl-5-(4-methylpiperazin-1-yl)-[1,2,4]triazolo[4,3-c]quinazolin-7-yl)ethyl)pyridin-3-amine], for which the IC50 in assay [1] is less than 1000 nM.

Consider `Cc1cc(C(C)Nc2ccc(Cl)nc2-c2ccnn2C)c2nc(N3CCN(C)CC3)n3cnnc3c2c1` (stereo not drawn) [Example 16, 6-Chloro-2-(1-methyl-1H-pyrazol-5-yl)-N-(1-(9-methyl-5-(4-methylpiperazin-1-yl)-[1,2,4]triazolo[4,3-c]quinazolin-7-yl)ethyl)pyridin-3-amine], for which, in assay [1], the IC50 was less than 1000 nM.
